What all share (experiment): EC50 assay: Ba/F3 stable cell proliferation (CCK-8, 72 h)
Assay type in all cases: cell-based

The target of experiment [1] is T1, Ba/F3 stable cells (Homo sapiens, UniProt P00533, DUP767-769, cells depend on it).
T1 construct: EC50 Ba/F3-EGFR V769-D770insASV; other: Ba/F3-EGFR V769-D770insASV cells, 72 h, CCK-8
The note with it: Ba/F3-EGFR V769-D770insASV cells. How it is done:
(§1) 4,000 Ba/F3 stable cells/90 μL/well were plated onto 96-well cell culture plate (Grenier, Cat.No. 655180) and incubated at 37° C. with a humidified atmosphere of 5% CO2 for 2 h. Then the cells were treated with 10 μL compounds at serial titration. The final DMSO concentration is 0.1%. The cells treated with 0.1% DMSO (Vetec, Cat.No.V900090) as a positive control (Max), and medium with 0.1% DMSO was as a negative control (Min). Incubated the cells at 37° C. for 72 h. 10 μL the cell proliferation reagent CCK-8 (Dojindo, Cat.No. CK04 1000T) was added into each well and incubated the plate at 37° C. for 4 hours, the GD value was measured by SPECTRAmax plus (Molecular Devices) at 450 nm. Data processing with Graphpad 7.0.

Experiment [2] has as its target T2, Ba/F3 stable cells (Homo sapiens, UniProt P00533, DUP768-770, cells depend on it).
T2 construct: EC50 Ba/F3-EGFR D770-N771insSVD; other: Ba/F3-EGFR D770-N771insSVD cells, 72 h, CCK-8
The note with it: Ba/F3-EGFR D770-N771insSVD cells. The protocol:
as §1

Experiment [3] concerns the target T3, Ba/F3 stable cells (Homo sapiens, UniProt P00533, DUP771-773, cells depend on it).
T3 construct: EC50 Ba/F3-EGFR H773-V774insNPH; other: Ba/F3-EGFR H773-V774insNPH cells, 72 h, CCK-8
To be noted: Ba/F3-EGFR H773-V774insNPH cells. The protocol: as §1

Experiment [4] has as its target T4, Ba/F3 stable cells (Homo sapiens, UniProt P00533, INS763FQEA, cells depend on it).
T4 construct: EC50 Ba/F3-EGFR A763-Y764insFQEA; other: Ba/F3-EGFR A763-Y764insFQEA cells, 72 h, CCK-8
To be noted: Ba/F3-EGFR A763-Y764insFQEA cells. How it is done: as §1

Experiment [5] deals with T5, Ba/F3 stable cells (Homo sapiens, UniProt P00533, T790M/L858R, cells depend on it).
T5 construct: EC50 Ba/F3-EGFR L858R-T790M; other: Ba/F3-EGFR L858R-T790M cells, 72 h, CCK-8
To be noted: Ba/F3-EGFR L858R-T790M cells. The protocol:
as §1

The target of experiment [6] is T6, Ba/F3 stable cells (Homo sapiens, UniProt P04626, DUP772-775, cells depend on it).
T6 construct: EC50 Ba/F3-HER2 A775-G776insYVMA; other: Ba/F3-HER2 A775-G776insYVMA cells, 72 h, CCK-8
To be noted: Ba/F3-HER2 A775-G776insYVMA cells. How it is done: as §1

Where only a bound is given, the exact number is not on record here.

T5 sequence (P00533 whole entry T790M/L858R): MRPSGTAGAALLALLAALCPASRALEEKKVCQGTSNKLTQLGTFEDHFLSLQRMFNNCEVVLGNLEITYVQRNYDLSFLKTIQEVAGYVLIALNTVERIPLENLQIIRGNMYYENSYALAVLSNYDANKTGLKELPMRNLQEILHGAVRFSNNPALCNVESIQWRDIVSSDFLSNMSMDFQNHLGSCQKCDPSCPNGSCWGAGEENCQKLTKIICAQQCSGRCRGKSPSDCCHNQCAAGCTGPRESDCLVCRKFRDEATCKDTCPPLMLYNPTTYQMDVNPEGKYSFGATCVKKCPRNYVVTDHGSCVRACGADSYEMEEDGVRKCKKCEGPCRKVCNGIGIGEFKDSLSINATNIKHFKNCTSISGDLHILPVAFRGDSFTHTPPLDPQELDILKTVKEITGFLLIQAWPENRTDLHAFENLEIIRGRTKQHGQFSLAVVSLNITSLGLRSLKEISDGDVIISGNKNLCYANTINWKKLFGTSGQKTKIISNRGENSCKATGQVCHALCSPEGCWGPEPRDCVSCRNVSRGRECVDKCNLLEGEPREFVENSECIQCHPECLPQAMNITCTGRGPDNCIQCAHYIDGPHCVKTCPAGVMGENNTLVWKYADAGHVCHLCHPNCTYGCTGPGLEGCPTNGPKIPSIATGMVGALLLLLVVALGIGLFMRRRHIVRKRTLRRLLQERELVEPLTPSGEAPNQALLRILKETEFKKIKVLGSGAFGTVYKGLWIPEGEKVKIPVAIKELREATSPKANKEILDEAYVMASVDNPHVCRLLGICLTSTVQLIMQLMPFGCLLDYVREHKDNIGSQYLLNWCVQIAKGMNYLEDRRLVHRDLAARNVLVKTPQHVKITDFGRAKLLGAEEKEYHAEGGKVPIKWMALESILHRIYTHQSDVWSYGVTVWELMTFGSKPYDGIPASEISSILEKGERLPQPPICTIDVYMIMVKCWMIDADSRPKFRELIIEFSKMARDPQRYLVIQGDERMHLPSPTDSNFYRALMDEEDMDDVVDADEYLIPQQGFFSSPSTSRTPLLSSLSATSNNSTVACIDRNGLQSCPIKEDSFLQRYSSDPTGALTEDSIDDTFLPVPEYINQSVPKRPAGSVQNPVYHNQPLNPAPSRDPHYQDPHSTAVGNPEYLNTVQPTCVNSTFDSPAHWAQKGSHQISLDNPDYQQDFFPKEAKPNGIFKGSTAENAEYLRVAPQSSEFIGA
T6 sequence (P04626 with tags, fused parts or gaps DUP772-775): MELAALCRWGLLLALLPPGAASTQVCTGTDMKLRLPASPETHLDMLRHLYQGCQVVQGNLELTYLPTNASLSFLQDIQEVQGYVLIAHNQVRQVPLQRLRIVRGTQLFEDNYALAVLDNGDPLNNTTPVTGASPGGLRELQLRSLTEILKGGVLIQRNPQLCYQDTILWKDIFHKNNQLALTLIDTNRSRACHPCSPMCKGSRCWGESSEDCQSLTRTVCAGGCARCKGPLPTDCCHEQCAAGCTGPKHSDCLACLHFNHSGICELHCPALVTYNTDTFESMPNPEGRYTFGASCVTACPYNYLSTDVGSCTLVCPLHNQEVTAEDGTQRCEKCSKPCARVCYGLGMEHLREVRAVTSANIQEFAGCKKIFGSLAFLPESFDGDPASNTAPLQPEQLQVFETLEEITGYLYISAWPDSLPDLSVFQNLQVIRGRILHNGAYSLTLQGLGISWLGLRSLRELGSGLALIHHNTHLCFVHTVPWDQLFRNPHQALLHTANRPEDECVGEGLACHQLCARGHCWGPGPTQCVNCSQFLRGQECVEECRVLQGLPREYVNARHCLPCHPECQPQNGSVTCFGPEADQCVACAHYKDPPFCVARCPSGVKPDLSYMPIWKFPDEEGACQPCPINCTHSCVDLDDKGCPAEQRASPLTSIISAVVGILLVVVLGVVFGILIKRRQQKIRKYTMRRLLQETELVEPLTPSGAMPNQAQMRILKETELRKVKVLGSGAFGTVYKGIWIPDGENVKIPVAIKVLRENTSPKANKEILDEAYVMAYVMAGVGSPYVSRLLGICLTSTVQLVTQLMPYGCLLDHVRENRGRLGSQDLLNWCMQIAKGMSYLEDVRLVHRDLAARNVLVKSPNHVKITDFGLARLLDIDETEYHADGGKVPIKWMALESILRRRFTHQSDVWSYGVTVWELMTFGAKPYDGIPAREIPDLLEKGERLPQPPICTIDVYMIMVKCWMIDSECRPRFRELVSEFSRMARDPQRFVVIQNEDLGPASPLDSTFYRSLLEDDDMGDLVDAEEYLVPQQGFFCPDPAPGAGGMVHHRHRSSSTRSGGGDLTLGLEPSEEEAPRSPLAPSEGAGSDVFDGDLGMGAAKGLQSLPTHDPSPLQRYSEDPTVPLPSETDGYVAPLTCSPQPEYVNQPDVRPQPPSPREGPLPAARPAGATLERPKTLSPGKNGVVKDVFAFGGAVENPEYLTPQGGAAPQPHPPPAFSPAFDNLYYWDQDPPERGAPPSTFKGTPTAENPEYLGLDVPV
T4 sequence (P00533 with tags, fused parts or gaps INS763FQEA): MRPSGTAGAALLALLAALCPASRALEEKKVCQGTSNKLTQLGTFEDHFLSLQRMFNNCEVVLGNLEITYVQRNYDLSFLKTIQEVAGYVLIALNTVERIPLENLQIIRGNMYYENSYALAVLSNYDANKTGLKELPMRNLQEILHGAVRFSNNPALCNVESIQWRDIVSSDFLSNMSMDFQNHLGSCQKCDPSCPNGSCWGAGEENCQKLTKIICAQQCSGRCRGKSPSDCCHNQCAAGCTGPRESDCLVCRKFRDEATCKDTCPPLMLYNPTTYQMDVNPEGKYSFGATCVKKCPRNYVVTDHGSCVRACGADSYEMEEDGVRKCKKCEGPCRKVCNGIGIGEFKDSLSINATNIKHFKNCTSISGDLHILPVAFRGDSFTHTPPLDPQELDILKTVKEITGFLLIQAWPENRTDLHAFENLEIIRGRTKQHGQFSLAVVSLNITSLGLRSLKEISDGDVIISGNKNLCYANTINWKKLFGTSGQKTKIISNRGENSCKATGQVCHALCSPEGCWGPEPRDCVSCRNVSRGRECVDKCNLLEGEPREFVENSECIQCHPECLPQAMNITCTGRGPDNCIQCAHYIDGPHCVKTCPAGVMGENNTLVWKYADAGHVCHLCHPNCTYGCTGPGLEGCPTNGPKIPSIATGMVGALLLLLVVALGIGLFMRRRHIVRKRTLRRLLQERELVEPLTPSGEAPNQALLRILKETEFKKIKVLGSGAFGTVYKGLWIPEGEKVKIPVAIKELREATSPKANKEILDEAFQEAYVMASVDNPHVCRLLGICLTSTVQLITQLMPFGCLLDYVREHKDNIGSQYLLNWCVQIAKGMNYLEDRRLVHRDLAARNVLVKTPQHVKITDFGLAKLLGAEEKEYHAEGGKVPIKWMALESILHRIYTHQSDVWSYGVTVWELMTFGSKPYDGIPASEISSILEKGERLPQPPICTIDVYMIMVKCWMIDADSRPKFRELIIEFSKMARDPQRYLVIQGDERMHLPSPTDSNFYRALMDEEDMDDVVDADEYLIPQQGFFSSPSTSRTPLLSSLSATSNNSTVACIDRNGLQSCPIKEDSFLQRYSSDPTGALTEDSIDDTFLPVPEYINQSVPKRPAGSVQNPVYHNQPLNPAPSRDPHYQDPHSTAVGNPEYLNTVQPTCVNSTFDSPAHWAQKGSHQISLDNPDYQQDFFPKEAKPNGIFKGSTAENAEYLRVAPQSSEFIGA
T1 sequence (P00533 with tags, fused parts or gaps DUP767-769): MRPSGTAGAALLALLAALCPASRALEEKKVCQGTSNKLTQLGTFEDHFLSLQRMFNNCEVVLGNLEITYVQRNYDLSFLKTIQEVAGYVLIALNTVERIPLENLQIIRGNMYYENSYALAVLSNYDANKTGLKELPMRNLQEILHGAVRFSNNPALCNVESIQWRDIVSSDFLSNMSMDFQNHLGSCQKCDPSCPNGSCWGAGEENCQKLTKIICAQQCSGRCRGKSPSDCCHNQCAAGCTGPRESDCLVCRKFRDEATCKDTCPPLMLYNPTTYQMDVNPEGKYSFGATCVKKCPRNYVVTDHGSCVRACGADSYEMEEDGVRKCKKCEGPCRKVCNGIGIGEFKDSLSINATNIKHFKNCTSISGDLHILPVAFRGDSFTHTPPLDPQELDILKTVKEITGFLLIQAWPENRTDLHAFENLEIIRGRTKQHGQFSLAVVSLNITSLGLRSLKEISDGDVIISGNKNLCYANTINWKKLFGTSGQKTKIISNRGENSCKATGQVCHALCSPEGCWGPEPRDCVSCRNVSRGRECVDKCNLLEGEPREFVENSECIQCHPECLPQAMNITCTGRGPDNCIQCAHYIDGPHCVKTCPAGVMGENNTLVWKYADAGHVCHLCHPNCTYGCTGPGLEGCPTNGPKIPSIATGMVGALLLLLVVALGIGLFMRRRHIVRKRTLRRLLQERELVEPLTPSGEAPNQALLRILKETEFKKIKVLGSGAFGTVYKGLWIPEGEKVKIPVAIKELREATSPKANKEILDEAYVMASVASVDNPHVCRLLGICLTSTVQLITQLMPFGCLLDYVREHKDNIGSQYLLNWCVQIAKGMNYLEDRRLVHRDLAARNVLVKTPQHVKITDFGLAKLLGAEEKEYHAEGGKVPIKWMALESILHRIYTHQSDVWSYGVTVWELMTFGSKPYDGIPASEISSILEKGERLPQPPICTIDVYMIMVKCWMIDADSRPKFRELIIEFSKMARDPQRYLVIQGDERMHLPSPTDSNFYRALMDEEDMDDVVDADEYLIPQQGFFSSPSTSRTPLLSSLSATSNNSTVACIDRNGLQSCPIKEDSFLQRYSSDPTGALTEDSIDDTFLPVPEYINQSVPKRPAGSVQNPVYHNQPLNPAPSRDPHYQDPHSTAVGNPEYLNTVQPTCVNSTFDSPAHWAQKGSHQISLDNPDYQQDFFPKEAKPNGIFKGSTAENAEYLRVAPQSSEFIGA

As for `C=CC(=O)N1CC(c2cc3c(Nc4ccc(Cl)c(Cl)c4F)ncnc3cc2OCCOC)C1` [Compound 17, 1-(3-(4-((3,4-dichloro-2-fluorophenyl)amino)-7-(2-methoxyethoxy)quinazolin-6-yl)azetidin-1-yl)prop-2-en-1-one], the half-maximal effective concentration (EC50) on Ba/F3 stable cells [1], on Ba/F3 stable cells [2], at Ba/F3 stable cells [3], on Ba/F3 stable cells [4], on Ba/F3 stable cells [5] and at Ba/F3 stable cells [6] was at most 200 nM in each case.
Consider `C=CC(=O)N1CC(c2cc3c(Nc4ccc(Cl)c(Cl)c4F)ncnc3cc2OCC)C1` [Compound 18, 1-(3-(4-((3,4-dichloro-2-fluorophenyl)amino)-7-ethoxyquinazolin-6-yl)azetidin-1-yl)prop-2-en-1-one], for which the concentration giving a half-maximal response (EC50) at Ba/F3 stable cells [1], on Ba/F3 stable cells [2], at Ba/F3 stable cells [3], on Ba/F3 stable cells [4], at Ba/F3 stable cells [5] and at Ba/F3 stable cells [6] was at most 200 nM in each case.
`C=CC(=O)N1CC(c2cc3c(Nc4ccc(Cl)c(Cl)c4F)ncnc3cc2OCCO)C1` [Compound 19, 1-(3-(4-((3,4-dichloro-2-fluorophenyl)amino)-7-(2-hydroxyethoxy)quinazolin-6-yl)azetidin-1-yl)prop-2-en-1-one]: the EC50 on Ba/F3 stable cells [1], on Ba/F3 stable cells [2], at Ba/F3 stable cells [3], on Ba/F3 stable cells [4], on Ba/F3 stable cells [5] and on Ba/F3 stable cells [6] was at most 200 nM each time.
With `C=CC(=O)N1CC(c2cc3c(Nc4ccc(Cl)c(Cl)c4F)ncnc3cc2OCCN2CCN(C)CC2)C1` [Compound 21, 1-(3-(4-((3,4-dichloro-2-fluorophenyl)amino)-7-(2-(4-methylpiperazin-1-yl)ethoxy)quinazolin-6-yl)azetidin-1-yl)prop-2-en-1-one], the EC50 at Ba/F3 stable cells [1], at Ba/F3 stable cells [2], on Ba/F3 stable cells [3], on Ba/F3 stable cells [4], on Ba/F3 stable cells [5] and at Ba/F3 stable cells [6] was at most 200 nM in each case.
For `C=CC(=O)N1CC(c2cc3c(Nc4ccc(Cl)c(Cl)c4F)ncnc3cc2O[C@H]2CCOC2)C1` [Compound 22, (S)-1-(3-(4-((3,4-dichloro-2-fluorophenyl)amino)-7-((tetrahydrofuran-3-yl)oxy)quinazolin-6-yl)azetidin-1-yl)prop-2-en-1-one], the EC50 was above 1000 nM on Ba/F3 stable cells [1]; above 1000 nM at Ba/F3 stable cells [2]; above 1000 nM at Ba/F3 stable cells [3]; 200 to 1000 nM at Ba/F3 stable cells [4]; above 1000 nM at Ba/F3 stable cells [5]; above 1000 nM at Ba/F3 stable cells [6].
With `C=CC(=O)N1CC(c2cc3c(Nc4ccc(Cl)c(Cl)c4F)ncnc3cc2OC(F)F)C1` [Compound 23, 1-(3-(4-((3,4-dichloro-2-fluorophenyl)amino)-7-(difluoromethoxy)quinazolin-6-yl)azetidin-1-yl)prop-2-en-1-one], the concentration for a half-maximal effect (EC50) on Ba/F3 stable cells [1] was at most 200 nM; at Ba/F3 stable cells [2], at most 200 nM; on Ba/F3 stable cells [3], at most 200 nM; at Ba/F3 stable cells [4], at most 200 nM; at Ba/F3 stable cells [5], at most 200 nM; on Ba/F3 stable cells [6], 200 to 1000 nM.
For `C=CC(=O)N1CC(c2cc3c(Nc4ccc(Cl)c(Cl)c4F)ncnc3cc2OC2COC2)C1` [Compound 25, 1-(3-(4-((3,4-dichloro-2-fluorophenyl)amino)-7-(oxetan-3-yloxy)quinazolin-6-yl)azetidin-1-yl)prop-2-en-1-one], the EC50 on Ba/F3 stable cells [1], on Ba/F3 stable cells [2], at Ba/F3 stable cells [3], on Ba/F3 stable cells [4], at Ba/F3 stable cells [5] and at Ba/F3 stable cells [6] was at most 200 nM in each case.
As to `C=CC(=O)N1CC(c2cc3c(Nc4ccc(Cl)c(Cl)c4F)ncnc3cc2OCCN(C)C)C1` [Compound 26, 1-(3-(4-((3,4-dichloro-2-fluorophenyl)amino)-7-(2-(dimethylamino)ethoxy)quinazolin-6-yl)azetidin-1-yl)prop-2-en-1-one], the EC50 was at most 200 nM on Ba/F3 stable cells [1]; 200 to 1000 nM at Ba/F3 stable cells [2]; 200 to 1000 nM at Ba/F3 stable cells [3]; at most 200 nM on Ba/F3 stable cells [4]; 200 to 1000 nM on Ba/F3 stable cells [5]; 200 to 1000 nM on Ba/F3 stable cells [6].
As to `C=CC(=O)N1CC(c2cc3c(Nc4ccc(Cl)c(Cl)c4F)ncnc3cc2OC2CCOCC2)C1` [Compound 27, 1-(3-(4-((3,4-dichloro-2-fluorophenyl)amino)-7-((tetrahydro-2H-pyran-4-yl)oxy)quinazolin-6-yl)azetidin-1-yl)prop-2-en-1-one], the 50% effective concentration (EC50) at Ba/F3 stable cells [1] was at most 200 nM; at Ba/F3 stable cells [2], 200 to 1000 nM; at Ba/F3 stable cells [3] it was at most 200 nM; on Ba/F3 stable cells [4] it was at most 200 nM; on Ba/F3 stable cells [5], 200 to 1000 nM; on Ba/F3 stable cells [6], above 1000 nM.
Take `C=CC(=O)N1CC(c2cc3c(Nc4ccc(Cl)c(Cl)c4F)ncnc3cc2OCCN2CCOCC2)C1` [Compound 28, 1-(3-(4-((3,4-dichloro-2-fluorophenyl)amino)-7-(2-morpholinoethoxy)quinazolin-6-yl)azetidin-1-yl)prop-2-en-1-one]: the EC50 at Ba/F3 stable cells [1] is at most 200 nM; at Ba/F3 stable cells [2], 200 to 1000 nM; on Ba/F3 stable cells [3], at most 200 nM; at Ba/F3 stable cells [4], at most 200 nM; on Ba/F3 stable cells [5], 200 to 1000 nM; on Ba/F3 stable cells [6], 200 to 1000 nM.
For the compound `C=CC(=O)N1CC(c2cc3c(Nc4ccc(Cl)c(Cl)c4F)ncnc3cc2O[C@@H]2CCOC2)C1` [Compound 29, (R)-1-(3-(4-((3,4-dichloro-2-fluorophenyl)amino)-7-((tetrahydrofuran-3-yl)oxy)quinazolin-6-yl)azetidin-1-yl)prop-2-en-1-one], the EC50 was at most 200 nM on Ba/F3 stable cells [1]; 200 to 1000 nM at Ba/F3 stable cells [2]; at most 200 nM on Ba/F3 stable cells [3]; at most 200 nM at Ba/F3 stable cells [4]; at most 200 nM at Ba/F3 stable cells [5]; 200 to 1000 nM at Ba/F3 stable cells [6].
For `C=CC(=O)N1CC(c2cc3c(Nc4ccc(Cl)c(Cl)c4F)ncnc3cc2OCCCN2CCOCC2)C1` [Compound 30, 1-(3-(4-((3,4-dichloro-2-fluorophenyl)amino)-7-(3-morpholinopropoxy)quinazolin-6-yl)azetidin-1-yl)prop-2-en-1-one], the EC50 on Ba/F3 stable cells [1], on Ba/F3 stable cells [2], at Ba/F3 stable cells [3], at Ba/F3 stable cells [4], at Ba/F3 stable cells [5] and at Ba/F3 stable cells [6] was at most 200 nM throughout.
Take `C=CC(=O)N1CC(c2cc3c(Nc4ccc(Cl)c(Cl)c4F)ncnc3cc2OCCCN2CCN(C)CC2)C1` [Compound 31, 1-(3-(4-((3,4-dichloro-2-fluorophenyl)amino)-7-(3-(4-methylpiperazin-1-yl)propoxy)quinazolin-6-yl)azetidin-1-yl)prop-2-en-1-one]: the EC50 at Ba/F3 stable cells [1] is at most 200 nM; on Ba/F3 stable cells [2], at most 200 nM; at Ba/F3 stable cells [3], at most 200 nM; on Ba/F3 stable cells [4] it was at most 200 nM; on Ba/F3 stable cells [5], at most 200 nM; at Ba/F3 stable cells [6], 200 to 1000 nM.
`[2H]C([2H])([2H])Oc1cc2ncnc(Nc3ccc(Cl)c(Cl)c3F)c2cc1C1CN(C(=O)C=C)C1` [Compound 32, 1-(3-(4-((3,4-dichloro-2-fluorophenyl)amino)-7-(methoxy-d3)quinazolin-6-yl)azetidin-1-yl)prop-2-en-1-one]: the concentration giving a half-maximal response (EC50) at Ba/F3 stable cells [1], at Ba/F3 stable cells [2], on Ba/F3 stable cells [3], at Ba/F3 stable cells [4], on Ba/F3 stable cells [5] and at Ba/F3 stable cells [6] was at most 200 nM throughout.
`C=CC(=O)N1CC(c2cc3c(Nc4ccc(F)c(Cl)c4F)ncnc3cc2O[C@H]2CCOC2)C1` [Compound 33, (S)-1-(3-(4-((3-chloro-2,4-difluorophenyl)amino)-7-((tetrahydrofuran-3-yl)oxy)quinazolin-6-yl)azetidin-1-yl)prop-2-en-1-one]: the half-maximal effective concentration (EC50) at Ba/F3 stable cells [1], at Ba/F3 stable cells [2], on Ba/F3 stable cells [3], at Ba/F3 stable cells [4], at Ba/F3 stable cells [5] and at Ba/F3 stable cells [6] was at most 200 nM in each case.

The record behind these values is patent US20250243171A1, “QUINAZOLINE COMPOUNDS FOR TREATMENT OF DISEASE” (Arthrosi Therapeutics, Inc., priority 2021, published 2025).
